Target: T1, human full-length recombinant PKC βII (Homo sapiens, UniProt P05771)
T1 construct: Active human full-length recombinant PKC βII; purchased Invitrogen GmbH, Darmstadt, Germany
Test: Determination of PKC βII inhibition (Caliper mobility-shift kinase assay, Fluorescein-RFARKGSLRQKNV peptide substrate)
Format: biochemical
Conditions: example compounds at a final concentration of 1.14 μM (±0.15 μM)
Method in brief: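 Full-length PKC βII (30 ng/ml in pre-dilution) with PS/DAG/Ca2+ activators, pH 7.4; fluorescein peptide and ATP at 3 μM and 120 μM before mixing. Reaction ran 60 min at 32 °C, was EDTA-stopped, and was read by mobility shift. % inhibition came from product/(substrate+product) peak heights, tested at 1.14 μM final.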

T1 sequence (P05771 1-673 isoform P05771-2): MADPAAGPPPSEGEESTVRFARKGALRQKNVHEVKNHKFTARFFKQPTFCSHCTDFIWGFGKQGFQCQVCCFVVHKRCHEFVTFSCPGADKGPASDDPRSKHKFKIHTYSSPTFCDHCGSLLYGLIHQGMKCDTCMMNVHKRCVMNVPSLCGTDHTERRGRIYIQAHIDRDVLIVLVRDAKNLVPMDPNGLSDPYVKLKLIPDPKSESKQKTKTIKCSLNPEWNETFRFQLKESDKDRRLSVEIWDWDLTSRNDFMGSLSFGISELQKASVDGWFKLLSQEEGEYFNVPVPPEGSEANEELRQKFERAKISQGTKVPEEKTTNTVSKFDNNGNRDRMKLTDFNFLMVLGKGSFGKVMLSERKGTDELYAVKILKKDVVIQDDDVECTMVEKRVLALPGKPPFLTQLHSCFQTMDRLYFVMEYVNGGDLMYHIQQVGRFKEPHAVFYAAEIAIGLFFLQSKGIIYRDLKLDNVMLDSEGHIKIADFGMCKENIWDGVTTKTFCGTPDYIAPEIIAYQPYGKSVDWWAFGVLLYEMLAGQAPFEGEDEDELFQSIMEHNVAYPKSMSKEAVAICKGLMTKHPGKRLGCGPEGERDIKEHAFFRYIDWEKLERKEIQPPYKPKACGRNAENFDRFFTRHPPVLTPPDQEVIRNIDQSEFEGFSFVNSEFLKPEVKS

inhibition at 1.14 µM [%]	SMILES
44	Cc1n[nH]c2nc(-c3ccc(O)cc3)cc(C(=O)N3C[C@@H](C)NC[C@@H]3c3ccccc3)c12 [Example 458, [6-(4-Hydroxy-phenyl)-3-methyl-1H-pyrazolo[3,4-b]pyridin-4-yl]-((2S,5R)-5-methyl-2-phenyl-piperazin-1-yl)-methanone]
95	Cc1n[nH]c2nc(-c3ccc(O)cc3)cc(C(=O)N3C[C@H](C)NC[C@H]3c3ccccc3)c12 [Example 459, [6-(4-Hydroxy-phenyl)-3-methyl-1H-pyrazolo[3,4-b]pyridin-4-yl]-((2R,5S)-5-methyl-2-phenyl-piperazin-1-yl)-methanone]

From patent publication US8686150B2 (Sanofi, priority 2011, dated 2014)
